How the values were obtained:
wild-type PYR1 (WT) = wild-type PYR1 (WT) (Arabidopsis thaliana, UniProt O49686); assay: Responsiveness of PYR1 K59 mutants to ABA and dichlobenil; assay type: cell-based
Experimental: (§1) To test these two hypotheses, a series of K59 mutants were constructed in PYR1 and examined for their sensitivity to the native ligand ABA and the orthogonal ligand dichlobenil (Table 6). Dichlobenil was chosen as a model orthogonal ligand for these studies because it was observed that it is a weak PYR/PYL agonist (i.e., it can weakly activate receptors at concentrations of 200 μM or higher). Dichlobenil therefore provides a useful test molecule with which to probe a mutant's sensitivity to an orthogonal ligand.

[1] = system: PYR/PYL-PP2C protein-protein interactions; assay: Yeast competition screen: reduction of ABA-promoted PYR/PYL-PP2C interaction; assay type: cell-based; conditions: 100 nM ABA and 100 μM test chemical (1000-fold excess), yeast strains
Excerpt: To isolate PYR1 orthogonal receptors, a two-step process was used. First, a large collection of compounds was screened to identify compounds that weakly interact with receptors, defined as such by their ability to displace receptor-bound ABA in competition experiments. Once weak binders were identified, those with the most desirable properties from an end-use perspective were used as targets for iterative mutagenesis and selection schemes. Pre-selection of weak-binding ligands improves the frequency of isolating new receptor proteins, because fewer alterations of the ligand binding site are required to achieve molecular recognition. However, pre-selection is not a prerequisite for success.
Pre-selection of ligands. 74 structurally diverse agrochemicals were obtained, selected from a larger set of approximately 1500 commercially available agrochemicals. These 74 compounds were tested for their ability to reduce ABA-promoted PYR/PYL-PP2C protein-protein interactions in suitable yeast strains when added at 1000-fold excess relative to ABA (i.e. 100 nM ABA and 100 μM test chemical).

PYR/PYL receptors = assay: Observed weak agonism of PYR/PYL receptors; conditions: weak PYR/PYL agonist
Experimental: as §1

PYR1 = PYR1 (Arabidopsis thaliana, UniProt O49686); conditions: cited from earlier work
Chain of PYR1 (O49686 whole entry): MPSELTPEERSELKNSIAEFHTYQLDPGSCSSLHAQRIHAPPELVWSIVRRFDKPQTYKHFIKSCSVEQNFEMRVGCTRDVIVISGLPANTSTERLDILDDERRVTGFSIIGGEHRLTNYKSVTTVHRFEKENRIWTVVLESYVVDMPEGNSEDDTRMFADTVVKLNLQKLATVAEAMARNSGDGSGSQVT

PYL1 = PYL1 (Arabidopsis thaliana, UniProt Q8VZS8); conditions: cited from earlier work
Chain of PYL1 (Q8VZS8 whole entry): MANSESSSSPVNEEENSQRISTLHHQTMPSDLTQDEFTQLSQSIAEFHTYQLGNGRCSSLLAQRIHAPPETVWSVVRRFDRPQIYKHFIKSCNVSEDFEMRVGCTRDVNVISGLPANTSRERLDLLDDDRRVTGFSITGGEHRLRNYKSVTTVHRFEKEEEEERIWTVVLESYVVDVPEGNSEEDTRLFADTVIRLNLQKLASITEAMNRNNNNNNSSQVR

PYL2 = PYL2 (Arabidopsis thaliana, UniProt O80992); conditions: cited from earlier work
Chain of PYL2 (O80992 whole entry): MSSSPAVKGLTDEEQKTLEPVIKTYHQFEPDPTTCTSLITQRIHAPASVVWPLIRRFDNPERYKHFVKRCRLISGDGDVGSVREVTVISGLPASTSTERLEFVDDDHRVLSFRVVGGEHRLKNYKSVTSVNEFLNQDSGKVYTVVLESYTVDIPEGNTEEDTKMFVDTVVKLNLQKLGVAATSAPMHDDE

PYR1 mutant 74A-1 = molecular target: T1, PYR1 mutant 74A-1 (Arabidopsis thaliana, UniProt O49686, H60R/K59R/N151D); assay: Yeast two-hybrid assay confirming bromoxynil responsiveness; assay type: cell-based; conditions: 10, 25, and 50 μM (applied 5, 10, 25, 50 μM)
T1 construct: expressed in transfected cells
T1 sequence (Q9CAJ0 23-511): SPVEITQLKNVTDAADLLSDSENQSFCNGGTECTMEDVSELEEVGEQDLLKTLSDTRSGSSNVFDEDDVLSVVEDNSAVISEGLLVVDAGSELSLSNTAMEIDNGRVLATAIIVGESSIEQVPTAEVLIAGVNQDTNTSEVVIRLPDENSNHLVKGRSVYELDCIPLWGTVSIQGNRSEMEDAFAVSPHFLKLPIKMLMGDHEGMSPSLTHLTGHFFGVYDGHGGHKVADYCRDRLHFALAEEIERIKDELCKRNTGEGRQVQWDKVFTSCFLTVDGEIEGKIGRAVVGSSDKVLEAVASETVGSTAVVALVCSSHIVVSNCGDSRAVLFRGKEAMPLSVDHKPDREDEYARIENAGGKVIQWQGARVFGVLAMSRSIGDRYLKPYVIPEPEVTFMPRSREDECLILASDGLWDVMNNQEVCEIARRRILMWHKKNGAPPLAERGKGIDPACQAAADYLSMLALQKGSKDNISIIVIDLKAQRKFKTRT
T1 sequence (O49686 whole entry K59R/H60R/N151D): as the sequence (O49686 whole entry) above, with K59R, H60R, N151D counted along it
Experimental: (§2) Plasmids for three representative mutant clones (27-9, 27-18, and 27-36) were isolated from the primary yeast cells and transformed into a pAD-HAB1 expressing YRG-2 reporter strain (Park et al., Science 324:1068-1071 (2009)) in which Ga14 drives expression of a LacZ reporter gene to allow colorimetric indication of agonist response. Fenhexamid was applied at concentrations of 1, 5, 10, 25, and 50 μM. […] Mutant 27-36 was responsive to fenhexamid at 25 and 50 μM concentrations.
(§3) Screens for bromoxynil (Table 2), dichlobenil (Table 3), and benoxacor (Table 4) responsive PYR1 mutants were conducted as described above for fenhexamid, each utilizing 200 μM test compound and the A′ library, generated as described above. Yeast two-hybrid assay confirmed bromoxynil responsiveness for representative mutant clones 74A-1 and 74A-2. Bromoxynil was applied at concentrations of 5, 10, 25, and 50 μM. Both mutants 74A-1 and 74A-2 were responsive to bromoxynil at concentrations of 10, 25, and 50 μM.

PYR1 mutant 74A-2 = molecular target: T2, PYR1 mutant 74A-2 (Arabidopsis thaliana, UniProt O49686, K59R/S92T); assay: as above; assay type: cell-based; conditions: 10, 25, and 50 μM (applied 5, 10, 25, 50 μM)
T2 construct: expressed in transfected cells; host or cells: Saccharomyces cerevisiae two-hybrid reporter strain expressing pAD-HAB1 (YRG-2 is named only for the fenhexamid confirmation)
T2 sequence (O49686 whole entry K59R/S92T): as the sequence (O49686 whole entry) above, with K59R, S92T counted along it
T2 sequence (Q9CAJ0 23-511, further chain): as the sequence (Q9CAJ0 23-511) above
Experimental: as §2, §3

[2] = molecular target: T3, 6×-His-PYR1(27-18) (S47P, K59R, Y120H) (Arabidopsis thaliana, UniProt O49686, K59R/S47P/Y120H); assay: In vitro PP2C phosphatase activity assay (receptor activation = inhibition of PP2C); assay type: biochemical; conditions: mutant 27-18; increasing concentrations; 10 mM Mn++ buffer; FIG. 1
T3 construct: 6x-His (N); made in house
T3 sequence (O49686 whole entry S47P/K59R/Y120H): as the sequence (O49686 whole entry) above, with S47P, K59R, Y120H counted along it
T3 sequence (Q9CAJ0 23-511, stated change not applied, further chain): as the sequence (Q9CAJ0 23-511) above
Experimental: (§4) FIGS. 1A-1B. PYR1 mutant 27-18 confers responsiveness to fenhexamid but not ABA. Representative PYR1 mutant 27-18 (comprising S47P, K59R, and Y120H substitution mutations) was tested for responsiveness to abscisic acid (“ABA”) (FIG. 1A) and fenhexamid (FIG. 1B) at increasing concentrations as compared to a wild-type PYR1 control using an in vitro PP2C phosphatase activity assay.
(§5) To probe orthogonal receptor-ligand interactions further, recombinant protein was expressed for the fenhexamid-responsive mutant 27-18, which has three mutations in PYR1. 6×-His-PYR1(27-18) protein was expressed and purified alongside wild-type PYR1 protein. Both proteins were tested for their ability to inhibit PP2C activity in response to increasing concentrations of either ABA or fenhexamid using phosphatase activity assays, in which activation of the PYR/PYL receptor is monitored by inhibition of PP2C activity (FIG. 1).

wild-type PYR1 protein = molecular target: T4, wild-type PYR1 protein (Arabidopsis thaliana, UniProt O49686); assay: as above; assay type: biochemical; conditions: increasing concentrations, 10 mM Mn++ buffer, FIG. 1
T4 construct: made in house
T4 sequence (O49686 whole entry): as the sequence (O49686 whole entry) above
T4 sequence (Q9CAJ0 23-511 partner): as the sequence (Q9CAJ0 23-511) above
Experimental: as §4, §5

PYR1 mutant BTH-9 = molecular target: T5, PYR1 mutant BTH-9 (Arabidopsis thaliana, UniProt O49686, F159L); assay: Yeast two-hybrid assay confirming BTH responsiveness; assay type: cell-based; conditions: 50, 100, and 200 μM (applied 25, 50, 100, 200 μM)
T5 construct: expressed in transfected cells; host or cells: Saccharomyces cerevisiae two-hybrid reporter strain expressing pAD-HAB1 (strain not restated for BTH)
T5 sequence (O49686 whole entry F159L): as the sequence (O49686 whole entry) above, with F159L counted along it
T5 sequence (Q9CAJ0 23-511 partner): as the sequence (Q9CAJ0 23-511) above
Experimental: as §2
Given the plasticity of PYR1 indicated by these experiments, we sought to establish if an orthogonal receptor could be isolated for a target ligand that was not prescreened for weak binding using the yeast competition assays described above. The same screening methodology as described above was used to screen for mutants that respond to BTH (acibenzolar-s-methyl). […] Yeast two-hybrid assay confirmed BTH responsiveness for representative mutant clone BTH-9. […] was applied at concentrations of 25, 50, 100, and 200 μM, and mutant BTH-9 was responsive to BTH at concentrations of 50, 100, and 200 μM. Thus, the plasticity of PYR1 enables many orthogonal receptor variants to be isolated.

Chain of wild-type PYR1 (WT) (O49686 whole entry): as the sequence (O49686 whole entry) above
Chain of wild-type PYR1 (WT) (Q9CAJ0 23-511 partner): as the sequence (Q9CAJ0 23-511) above

Structure (SMILES): N#Cc1c(Cl)cccc1Cl [dichlobenil]
- Responsiveness, Dichlobenil [50 μM] (wild-type PYR1 (WT)): not activated
- ability to reduce ABA-promoted PYR/PYL-PP2C protein-protein interactions [1]: compete for ABA
- Concentration at which receptors are weakly activated (PYR/PYL receptors): ≥ 200 µM

Structure (SMILES): N#Cc1cc(Cl)c(O)c(Cl)c1 [chloroxynil]
- ability to reduce ABA-promoted PYR/PYL-PP2C protein-protein interactions [1]: compete for ABA

Structure (SMILES): O=S(=O)(NCc1ccccn1)c1ccc(Br)c2ccccc12 [pyrabactin]
- Responsiveness to pyrabactin (PYR1): strong responsiveness
- Responsiveness to pyrabactin (PYL1): strong responsiveness
- Responsiveness to pyrabactin (PYL2): do not

Structure (SMILES): N#Cc1cc(Br)c(O)c(Br)c1 [bromoxynil]
- ability to reduce ABA-promoted PYR/PYL-PP2C protein-protein interactions [1]: compete for ABA
- Responsiveness to bromoxynil (yeast two-hybrid) (PYR1 mutant 74A-1): responsive
- Responsiveness to bromoxynil (yeast two-hybrid) (PYR1 mutant 74A-2): responsive

Structure (SMILES): O=c1oc2ccccc2c(O)c1C1CCCc2ccccc21 (centres unmarked) [coumatetralyl]
- ability to reduce ABA-promoted PYR/PYL-PP2C protein-protein interactions [1]: compete for ABA

Structure (SMILES): CC1=CC(=O)CC(C)(C)[C@@]1(O)/C=C/C(C)=C\C(=O)O [ABA, abscisic acid]
- Receptor activation (inhibition of PP2C activity) [2]: failed to activate
- Receptor activation (inhibition of PP2C activity) (wild-type PYR1 protein): efficiently activated

Structure (SMILES): CSC(=O)c1cccc2nnsc12 [BTH, acibenzolar-s-methyl]
- Responsiveness to BTH (yeast two-hybrid) (PYR1 mutant BTH-9): responsive

From patent US20160312240A1, “MODIFIED PYR/PYL RECEPTORS ACTIVATED BY ORTHOGONAL LIGANDS” (The Regents of the University of California, priority 2010, published 2016)
